Our source for the EC50, AC50 and IC50 values is ChEMBL document CHEMBL1201862, “PubChem BioAssay data set” (2004).

Data set [1] can be described thus: alpha-synuclein stem-loop luciferase translation blockers – H4 neuroglioma cells, luminescence, confirmation (AID 1988). The format is functional, cell-based.
Data set [2] is described as follows: Luminescence Cell-Based Dose Response HTS to Identify Inhibitors of 5'UTR Stem-Loop Driven Prion Protein mRNA Translation in H4 Neuroglioblastoma Cells. [Related pubchem assays: 1827 (Project Summary), 1813 (Primary HTS)]. It is filed as functional.
Data set [3] in a line: luciferase reporter signal suppression in cells – H4 neuroglioma cells, luminescence, dose response (AID 1990). It is filed as functional, cell-based. In general terms: In a reporter assay the amount or activity of a reporter protein is the signal.
Data set [4] is described as follows: Luminescence Cell-Based Dose Retest to Confirm Inhibitors of Cancer Stem Cells. [Related pubchem assays (depositor defined):AID2717, AID2721]. The format is functional. The note with it: Homo sapiens.
The target in data set [5] is T1, Cytochrome P450 1A2 (Homo sapiens, UniProt P05177).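 Note: PubChem cytochrome P450 panel assay, CYP1A2 panel member.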
T1 sequence (P05177 whole entry): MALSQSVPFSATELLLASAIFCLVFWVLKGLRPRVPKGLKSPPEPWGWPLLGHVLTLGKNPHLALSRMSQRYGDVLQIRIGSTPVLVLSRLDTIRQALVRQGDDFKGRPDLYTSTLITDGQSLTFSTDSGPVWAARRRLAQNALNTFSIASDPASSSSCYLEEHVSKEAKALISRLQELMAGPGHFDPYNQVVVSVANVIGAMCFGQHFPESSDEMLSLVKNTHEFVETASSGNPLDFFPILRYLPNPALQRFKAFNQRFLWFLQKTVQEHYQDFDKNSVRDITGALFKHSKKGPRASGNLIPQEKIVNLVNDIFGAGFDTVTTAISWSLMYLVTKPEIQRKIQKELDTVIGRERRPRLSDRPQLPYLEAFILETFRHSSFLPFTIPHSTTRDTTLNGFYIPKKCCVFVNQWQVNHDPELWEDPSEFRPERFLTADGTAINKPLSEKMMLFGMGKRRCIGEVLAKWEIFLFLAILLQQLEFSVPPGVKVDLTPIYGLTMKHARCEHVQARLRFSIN

The target in data set [6] is Cytochrome P450 2C9 (Homo sapiens, UniProt P11712).
Sequence of Cytochrome P450 2C9 (P11712 whole entry): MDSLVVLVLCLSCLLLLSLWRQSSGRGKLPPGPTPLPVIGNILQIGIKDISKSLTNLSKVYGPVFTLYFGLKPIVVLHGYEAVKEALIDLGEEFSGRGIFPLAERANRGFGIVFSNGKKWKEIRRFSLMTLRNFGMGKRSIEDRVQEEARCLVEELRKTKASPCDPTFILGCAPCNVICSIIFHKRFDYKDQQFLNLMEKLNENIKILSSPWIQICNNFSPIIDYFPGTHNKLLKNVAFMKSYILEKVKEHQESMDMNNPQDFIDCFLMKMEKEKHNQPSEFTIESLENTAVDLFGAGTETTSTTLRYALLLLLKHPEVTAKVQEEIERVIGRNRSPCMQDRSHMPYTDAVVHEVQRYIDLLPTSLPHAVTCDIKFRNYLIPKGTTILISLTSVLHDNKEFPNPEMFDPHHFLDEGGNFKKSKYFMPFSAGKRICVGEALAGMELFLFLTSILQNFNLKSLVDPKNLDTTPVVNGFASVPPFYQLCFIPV
The target in data set [7] is Cytochrome P450 2C19 (Homo sapiens, UniProt P33261). The data set can be described thus: Cytochrome panel assay with activity outcomes. Panel member name: p450-cyp2c19 Compounds with AC50 equal or less than 10 uM are considered active. It is filed as functional.
Sequence of Cytochrome P450 2C19 (P33261 whole entry): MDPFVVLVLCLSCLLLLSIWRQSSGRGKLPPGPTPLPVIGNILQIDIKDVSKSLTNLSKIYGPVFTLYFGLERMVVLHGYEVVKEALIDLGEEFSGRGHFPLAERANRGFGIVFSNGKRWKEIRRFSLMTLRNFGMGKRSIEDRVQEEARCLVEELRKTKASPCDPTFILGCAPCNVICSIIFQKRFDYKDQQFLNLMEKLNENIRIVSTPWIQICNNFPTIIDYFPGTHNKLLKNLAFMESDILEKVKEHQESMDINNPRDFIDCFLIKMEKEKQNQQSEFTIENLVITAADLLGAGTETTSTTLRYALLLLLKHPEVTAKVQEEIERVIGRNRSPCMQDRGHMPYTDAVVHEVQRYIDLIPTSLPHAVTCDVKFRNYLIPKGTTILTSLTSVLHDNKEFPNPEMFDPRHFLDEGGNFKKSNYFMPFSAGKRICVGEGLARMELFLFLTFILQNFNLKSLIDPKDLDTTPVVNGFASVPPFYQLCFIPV
The test system of data set [8] is INS1. Put plainly: INS-1E survival protection against cytokine death – cell-based, luminescence, retest, dose response (AID 449756).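 Note: cell death triggered by IL-1 beta plus TNF-alpha plus IFN-gamma mixture; protective hits raise ATP signal compared with cytokine alone wells.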 The format is functional. The note with it: Rattus norvegicus.
Data set [9] can be described thus: NIH3T3 cell viability loss – ATP luminescence, mouse fibroblasts, counter-screen, dose response (AID 2010).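 Note: cells exposed to compound for about 90 hours before reading.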 The format is functional, cell-based. Background: Counterscreens check selectivity or assay interference.
Data set [10] in a line: Trypanosoma cruzi growth suppression in host cells – NIH3T3 host cells, beta-gal luminescence, confirmation (AID 2044).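 Note: intracellular parasites grown in NIH/3T3 mouse fibroblasts as host cells; luminescent beta-galactosidase reporter signal from transgenic T. cruzi replicating inside host cells; inhibitors lower the luminescence signal.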 The format is functional, cell-based.
The subject of data set [11] is H9c2. Put plainly: cells. It is filed as functional, cell-based. The note with it: Rattus norvegicus, H9c2, Myocardium.
The target of data set [12] is FAD-linked sulfhydryl oxidase ALR (Homo sapiens, UniProt P55789). The data set can be described thus: ALR-catalysed DTT oxidation blockers – biochemical, H2O2 detection, luminescence, cherry-pick, dose response (AID 493248).
Sequence of FAD-linked sulfhydryl oxidase ALR (P55789 whole entry): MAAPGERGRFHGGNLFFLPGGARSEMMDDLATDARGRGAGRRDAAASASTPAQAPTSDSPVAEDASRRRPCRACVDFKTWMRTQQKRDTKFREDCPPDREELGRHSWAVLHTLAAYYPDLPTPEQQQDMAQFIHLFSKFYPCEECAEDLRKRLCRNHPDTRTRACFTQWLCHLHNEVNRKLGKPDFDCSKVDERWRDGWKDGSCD
The target of data set [13] is Cytochrome P450 3A4 (Homo sapiens, UniProt P08684).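 Note: CYP3A4 tested as one member of a cytochrome P450 panel screen.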
Sequence of Cytochrome P450 3A4 (P08684 whole entry): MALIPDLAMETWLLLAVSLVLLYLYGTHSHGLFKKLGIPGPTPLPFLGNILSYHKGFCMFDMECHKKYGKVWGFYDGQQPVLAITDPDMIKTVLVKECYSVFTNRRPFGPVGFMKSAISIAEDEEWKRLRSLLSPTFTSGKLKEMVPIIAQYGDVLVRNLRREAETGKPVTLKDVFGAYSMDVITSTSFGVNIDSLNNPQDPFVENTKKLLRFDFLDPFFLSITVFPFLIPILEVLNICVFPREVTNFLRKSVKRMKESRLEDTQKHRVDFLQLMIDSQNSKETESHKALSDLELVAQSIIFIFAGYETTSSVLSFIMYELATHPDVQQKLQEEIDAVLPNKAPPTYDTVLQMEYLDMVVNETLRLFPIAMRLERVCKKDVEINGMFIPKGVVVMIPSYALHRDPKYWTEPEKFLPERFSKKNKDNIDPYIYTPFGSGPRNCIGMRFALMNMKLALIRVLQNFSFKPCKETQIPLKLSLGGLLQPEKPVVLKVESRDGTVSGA
Data set [14] deals with Cytochrome P450 2D6 (Homo sapiens, UniProt P10635).
Sequence of Cytochrome P450 2D6 (P10635 whole entry): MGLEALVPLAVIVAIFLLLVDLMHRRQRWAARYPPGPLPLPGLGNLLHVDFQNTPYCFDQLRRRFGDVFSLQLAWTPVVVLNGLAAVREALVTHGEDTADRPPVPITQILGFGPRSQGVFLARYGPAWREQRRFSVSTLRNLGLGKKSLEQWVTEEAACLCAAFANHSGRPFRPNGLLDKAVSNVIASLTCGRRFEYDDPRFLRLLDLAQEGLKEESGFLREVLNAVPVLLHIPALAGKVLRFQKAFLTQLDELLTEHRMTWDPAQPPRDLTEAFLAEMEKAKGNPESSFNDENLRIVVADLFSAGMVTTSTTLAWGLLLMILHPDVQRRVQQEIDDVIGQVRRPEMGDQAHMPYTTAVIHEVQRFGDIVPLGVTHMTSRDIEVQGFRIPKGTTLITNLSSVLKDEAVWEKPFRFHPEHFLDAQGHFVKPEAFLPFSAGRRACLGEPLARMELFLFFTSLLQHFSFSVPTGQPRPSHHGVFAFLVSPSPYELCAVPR
The subject of data set [15] is Streptococcus. Put plainly: GAS UMAA2166 growth inhibition – luminescence, BacTiterGlo, counter-screen for streptokinase expression inhibitor project, dose response (AID 1915).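 Note: potency for reduction of bacterial viability or growth.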 The format is functional, organism-based.
The target in data set [16] is T2, Streptokinase A (Streptococcus pyogenes serotype M1, UniProt P10520).
T2 sequence (P10520 whole entry): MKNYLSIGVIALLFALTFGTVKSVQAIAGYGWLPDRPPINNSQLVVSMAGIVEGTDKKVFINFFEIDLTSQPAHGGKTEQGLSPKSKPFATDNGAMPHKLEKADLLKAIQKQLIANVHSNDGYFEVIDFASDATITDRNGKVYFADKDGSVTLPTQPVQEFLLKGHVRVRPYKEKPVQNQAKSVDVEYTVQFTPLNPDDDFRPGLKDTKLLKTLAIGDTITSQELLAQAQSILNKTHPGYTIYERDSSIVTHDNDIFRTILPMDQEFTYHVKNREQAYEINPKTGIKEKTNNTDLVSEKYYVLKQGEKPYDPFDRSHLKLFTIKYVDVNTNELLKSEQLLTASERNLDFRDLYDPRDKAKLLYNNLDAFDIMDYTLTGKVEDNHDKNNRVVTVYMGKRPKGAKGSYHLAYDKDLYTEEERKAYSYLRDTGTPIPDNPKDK
Put plainly: viability-normalized secreted streptokinase activity reduction – plasminogen activation absorbance, OD405, dose response (AID 1914).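 Note: secreted streptokinase activity via plasminogen activation per viability signal from cell pellet.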 The format is functional, Streptococcus pyogenes M1 GAS.

Data set [17] has as its system Streptococcus sp. 'group A'. The data set can be described thus: Streptococcus pyogenes SK(-)GAS viability under kanamycin – luminescence, BacTiterGlo, confirmation, counter-screen for streptokinase expression inhibitor project, dose response (AID 1900). The format is functional, organism-based.

Molecules are shown by their SMILES. Activity calls are given as the source filed them.
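Throughout, for IC50: confirmatory concentration-response retest of ultra-high-throughput screening hits for modulation of myocardial damage; cell death induced by hydrogen peroxide oxidative stress; compound pretreatment for 60 min then peroxide exposure for 2 h; potency is for protecting the cells against peroxide damage rather than for killing them.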

With `CCOC(=O)c1[nH]c2ccccc2c1NC(=O)c1ccc(S(=O)(=O)N2CCCCC2)cc1`, the EC50 is 83.1 µM (active) in data set [1], > 120 µM (not active) in data set [2] and 18.7 µM (active) in data set [3].

Take `CC(=O)Oc1ccc(C(=O)Nc2ccc(C3(C#N)CCCC3)cc2)cc1`: the AC50 in data set [4] was 1.83 µM (active).

As to `CN1CCN(c2ncc3nc(-c4cccc(C#N)c4)c(=O)n(C)c3n2)CC1`, the AC50 in data set [5] is 12.6 µM (inconclusive); in data set [6], 39.8 µM (inconclusive).

As for `CCN1CCN(c2cc3nc(C)n(Cc4ccccc4)c(=O)c3cc2NC(=O)c2ccccc2F)CC1`, the EC50 in data set [1] was 8.28 µM (active); in [2], 8.79 µM (active); in [3], 8.04 µM (active).

Turning to `CCN(CC)Cc1c(O)c(Cl)cc2c3c(c(=O)oc12)CCCC3`, the results for the AC50 entry in [7], in data set [5] and in data set [6] were “inconclusive”, 11.2 µM (inconclusive) and 25.1 µM (inconclusive), respectively.

For `O=C(Nc1ncnc2c1C(c1ccccc1)c1c(ccc3ccccc13)O2)c1ccccc1` (stereo not drawn), in [8], the AC50 was 20.6 µM (active).

Regarding `Cc1c(C(=O)NCCCN2CCCCC2)oc2ccc3c(c12)C(O)CC1(CCCCC1)O3` (stereo not drawn), the EC50 in data set [1], in data set [2] and in [3] was > 120 µM (not active) throughout.

With `CCC[N+]1(CC#CCC(c2ccccc2)c2ccccc2)CCCCC1`, the EC50 in [9] was > 60 µM (not active); in data set [10] it was 0.767 µM (active). The AC50 in data set [8] is 1.67 µM (active).

In the case of `N#Cc1c(-c2ccco2)cc(-c2ccccn2)nc1N`, the IC50 in data set [11] is 14.3 µM (active).

With `c1ccc2c(CCNc3ncnc4nc[nH]c34)c[nH]c2c1`, in data set [12], the AC50 was 3.85 µM (active).

On to `Cc1nc2cncnc2n(-c2ccccc2)c1=O`, for which the AC50 in data set [5] is 10 µM (inconclusive); in [6], 39.8 µM (inconclusive); in data set [13] it was 12.6 µM (inconclusive).

Turning to `CCCC/C=C/C(NC(=O)C(C)(C)C)c1ccccc1` (stereo not drawn), the AC50 is 20 µM (inconclusive) in [5], 39.8 µM (inconclusive) in [6] and 20 µM (inconclusive) in [14].

Turning to `CCCCn1cnc2c(c(CC#N)nn2-c2ccccc2)c1=N`, the AC50 is 6.31 µM (inconclusive) in data set [7] (read-out: AC50) and 1 µM (inconclusive) in data set [5].

Consider `CC(C)c1cc(-c2cc(-c3ccccc3)on2)nc(NC2CCCC2)n1`, for which, in data set [4], the AC50 is 10.1 µM (active).

With `O=C(NCCNS(=O)(=O)c1ccccc1Cl)c1cc(OCC(F)(F)F)ccc1OCC(F)(F)F`, the AC50 was 31.6 µM (inconclusive) in [5], 12.6 µM (inconclusive) in [6] and 22.4 µM (inconclusive) in data set [14].

As for `COc1ccc(C(=O)N2CCC3(CC2)CCN(c2ccncc2)CC3)cc1`, the AC50 is 39.8 µM (inconclusive) in [5], 15.8 µM (inconclusive) in [13] and 15.8 µM (inconclusive) in data set [14].

Regarding `Cn1c(=O)[nH]c(=O)c2c1nc(N1CCC(Cc3ccccc3)CC1)n2Cc1ccccc1`, the EC50 was > 150 µM (not active) in data set [15]; 56.4 µM (active) in data set [1]; 18 µM (active) in [16]; 4.39 µM (active) in data set [17]; > 120 µM (not active) in data set [2]; 19.4 µM (active) in data set [3].

On to `Cn1c(=O)n(CCc2ccccc2)c(=O)c2c1nc1n2CCN1Cc1ccco1`, for which the IC50 in data set [11] is 10.5 µM (active).

In the case of `COC(=O)c1ccc(CSc2nc(O)c3cnn(-c4ccc(C)cc4)c3n2)o1`, the EC50 in data set [1] is > 120 µM (not active); in data set [2] it was > 120 µM (not active); in data set [3] it was 23.9 µM (active).

Turning to `Cn1c(-c2ccc3nc(N)sc3c2)nc2cc(N)ccc21`, the AC50 in data set [12] was 0.384 µM (active).

For `CCC(C)(C)n1nnnc1CN(Cc1cccs1)Cc1cc2cc(OC)ccc2nc1O`, the concentration giving a half-maximal response (EC50) is > 120 µM (not active) in data set [1], > 120 µM (not active) in data set [2] and 30.6 µM (active) in [3].

Consider `O=C(NCC(c1cccnc1)N1CCN(c2ccccc2)CC1)C1CCCCC1` (stereo not drawn), for which the AC50 in data set [12] is 19.4 µM (active).

Turning to `O=C(c1ccc(Cl)cc1)c1c[nH]c(C(=O)NNc2ccccc2)c1`, in [4], the AC50 is 1.34 µM (active).

With `Cc1ccccc1CN(C)CC(=O)Nc1cccc(S(=O)(=O)N(C)c2ccccc2)c1`, the EC50 in [1], in [2] and in data set [3] was > 120 µM (not active) each time.

`COc1ccc(CCNC(=O)c2cc3c(=O)n4cccc(C)c4nc3n(Cc3ccco3)c2=N)cc1OC`: the AC50 in data set [8] is 8.24 µM (active).

In the case of `CCN(CC)c1ccc(CN2CCCCCC2)cc1`, in data set [12], the AC50 was 3.84 µM (active).

With `Cc1ccc(CN2CC34C=CC(O3)C(C(=O)NCc3ccc5c(c3)OCO5)C4C2=O)cc1` (stereo not drawn), the AC50 in data set [5] was 17.8 µM (inconclusive); in data set [6], 12.6 µM (inconclusive).

On to `Cc1csc2ncnc(N3CCN(C(S)=Nc4ccc(C(F)(F)F)cc4)CC3)c12`, for which the EC50 in data set [1], in data set [2] and in data set [3] was > 120 µM (not active) each time.

On to `CCN(CCCNC(=O)C1CCC(=O)N1Cc1ccc(C)cc1)c1cccc(C)c1` (stereo not drawn), for which, in [12], the AC50 is 0.677 µM (active).

As for `CC(C)(C)c1ccc(NC(=O)N2CCCN(c3c(Cl)cncc3Cl)CC2)cc1`, in [4], the AC50 is 0.601 µM (active).

Turning to `CC(C)CC(C(=O)NC1CCCCC1)N(Cc1cccs1)C(=O)c1snc(C(N)=O)c1N` (stereo not drawn), in [11], the IC50 was > 79 µM (inactive).

As for `Fc1ccc(-c2cc(-c3nnc4n3CCCCC4)c3ccccc3n2)cc1`, the AC50 in data set [8] was 11.2 µM (active).

Take `CCCCC(=O)NNC(=O)N1c2ccccc2Sc2ccccc21`: in [12], the AC50 was 0.919 µM (active).

For `COc1cc2c(cc1OC)C(C(=O)Nc1ccccn1)C(c1cccnc1)N(C)C2=O` (stereo not drawn), the results for the AC50 in data set [5] and in data set [6] were 25.1 µM (inconclusive) and 11.2 µM (inconclusive), respectively.

With `Nc1nc(OCC2CCCCC2)c2nc[nH]c2n1`, the EC50 in data set [1] is 13.7 µM (active); in [2], 15.8 µM (active); in [3], 16.5 µM (active).

Regarding `O=C1C2C3C=CC(C3)C2C(=O)N1/N=C/c1cn(Cc2ccccc2)c2ccccc12` (stereo not drawn), the AC50 in data set [7] (read-out: AC50) is 8.91 µM (inconclusive); in [14], 39.8 µM (inconclusive). Also, the EC50 in [1] is 2.2 µM (active); in data set [2], 12.5 µM (active); in data set [3], 11 µM (active).

With `Cc1ccc(/N=C2\C=C(O)C(=O)c3ccccc32)c(C)c1`, the AC50 in [8] was 2.06 µM (active).

Consider `CCN(CC)c1ccc(/C=N/NC(=O)c2cccc(N3CCCC3=O)c2)cc1`, for which the AC50 in data set [12] was 2.14 µM (active).

Take `CC(/C=N\NC(=O)Cn1c(C)nc2ccccc21)=C\c1ccccc1`: the AC50 in [7] (read-out: AC50) is 0.562 µM (inconclusive); in data set [5] it was 8.91 µM (inconclusive).

In the case of `COc1cc(/C=N/NC(=O)C2C3CCCCC32C)cc(Br)c1O` (stereo not drawn), the AC50 in data set [12] is 0.272 µM (active).

For the molecule `Cc1cc(CC(=O)O)n(C)c1C(=O)c1ccc(Cl)cc1` [ZOMEPIRAC SODIUM], the AC50 in [5] was 12.6 µM (inconclusive).

What is called EC50 is the concentration needed to bring the measured effect to its halfway point. For orientation: AC50 means the concentration at which the activity in the assay is half-maximal. The term IC50 denotes the midpoint of a concentration-inhibition curve.
